Laboratory results as given in patent publication US10047096B2, “Substituted pyridobenzodiazepinone-derivatives and use thereof” (Bayer Pharma Aktiengesellschaft, priority 2014, dated 2018).

Experiments:
human PDGFRβ = human PDGFRβ (Homo sapiens (Human), UniProt P09619); assay: PDGFRβ kinase assay (PDGFRβ-HTRF); type: biochemical; conditions: 10 μM ATP; some mean values from multiple determinations
How it was run: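 GST-fused human PDGFRβ fragment (R561-L1106) from Sf9 cells was preincubated 15 min with compound in 50 mM HEPES pH 7.5, 10 mM MgCl2, 2.5 mM DTT, 0.01% Triton X-100; substrate was biotinylated poly-Glu,Tyr (4:1).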

[1] = target: pPDGFRβ in normal human dermal fibroblasts (NHDF) (Homo sapiens (Human), UniProt P09619); assay: Cellular pPDGFRβ inhibition assay; type: cell-based; conditions: NHDF stimulated with 50 ng/ml PDGF-BB, 1 h
Description: Thereafter, 50 ng/ml recombinant human PDGF-BB (R&D Systems, Cat. No. 220-BB-050) and a dilution series of the test substances to be examined in DMSO were added to the cells. The total volume per well was 100 μl. After incubation under the abovementioned conditions for one hour, the Opti-MEM® I Reduced Serum Medium was tapped out and discarded. Subsequently, the lysis buffer [Phospho PDGFRβ (Tyr751) Assay Whole Cell Lysate Kit, MSD, Cat. No. K150DVD-2] was made up according to the manufacturer's instructions and 70 μl of this mixture per well were added. The lysed cell samples were either stored at −20° C. or analysed immediately after the lysis in a Meso Scale SECTOR® Imager 2400 according to the abovementioned manufacturer's instructions. The measurement data were presented as percentage PDGFRβ stimulation compared to PDGF-BB-stimulated but substance-untreated cells. The IC50 values were calculated by employing the nonlinear regression (curve fit) function of GraphPad Prism 6 (La Jolla, Calif., USA).

pPDGFRβ in normal human dermal fibroblasts (NHDF), sequence (P09619 33-1106): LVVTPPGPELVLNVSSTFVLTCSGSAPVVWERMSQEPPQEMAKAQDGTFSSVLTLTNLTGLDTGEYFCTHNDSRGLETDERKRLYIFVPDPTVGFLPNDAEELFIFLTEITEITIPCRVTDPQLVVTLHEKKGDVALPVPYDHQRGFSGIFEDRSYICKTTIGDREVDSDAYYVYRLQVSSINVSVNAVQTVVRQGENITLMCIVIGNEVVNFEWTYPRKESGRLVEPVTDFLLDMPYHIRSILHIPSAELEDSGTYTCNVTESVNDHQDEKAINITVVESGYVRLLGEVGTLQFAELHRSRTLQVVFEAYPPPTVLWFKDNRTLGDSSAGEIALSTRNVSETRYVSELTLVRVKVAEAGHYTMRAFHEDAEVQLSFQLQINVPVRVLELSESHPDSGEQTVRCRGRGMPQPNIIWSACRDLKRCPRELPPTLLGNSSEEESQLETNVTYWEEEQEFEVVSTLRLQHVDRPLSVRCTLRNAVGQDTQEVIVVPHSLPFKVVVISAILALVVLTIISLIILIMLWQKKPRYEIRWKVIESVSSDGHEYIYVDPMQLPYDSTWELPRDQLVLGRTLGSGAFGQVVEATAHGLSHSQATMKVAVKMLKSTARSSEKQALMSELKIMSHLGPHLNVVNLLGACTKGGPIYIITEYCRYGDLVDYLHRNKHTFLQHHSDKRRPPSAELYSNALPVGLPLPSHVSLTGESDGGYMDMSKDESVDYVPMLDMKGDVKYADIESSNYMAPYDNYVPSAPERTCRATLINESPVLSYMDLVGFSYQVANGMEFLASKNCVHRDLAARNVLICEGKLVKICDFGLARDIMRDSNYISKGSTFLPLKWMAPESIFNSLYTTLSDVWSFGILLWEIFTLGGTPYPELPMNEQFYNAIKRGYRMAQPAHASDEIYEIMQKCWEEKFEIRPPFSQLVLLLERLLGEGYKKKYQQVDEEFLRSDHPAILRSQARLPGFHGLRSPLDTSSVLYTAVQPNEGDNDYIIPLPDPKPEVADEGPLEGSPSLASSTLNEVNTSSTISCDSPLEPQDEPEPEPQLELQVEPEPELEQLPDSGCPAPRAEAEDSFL
human PDGFRβ, sequence (P09619 561-1106): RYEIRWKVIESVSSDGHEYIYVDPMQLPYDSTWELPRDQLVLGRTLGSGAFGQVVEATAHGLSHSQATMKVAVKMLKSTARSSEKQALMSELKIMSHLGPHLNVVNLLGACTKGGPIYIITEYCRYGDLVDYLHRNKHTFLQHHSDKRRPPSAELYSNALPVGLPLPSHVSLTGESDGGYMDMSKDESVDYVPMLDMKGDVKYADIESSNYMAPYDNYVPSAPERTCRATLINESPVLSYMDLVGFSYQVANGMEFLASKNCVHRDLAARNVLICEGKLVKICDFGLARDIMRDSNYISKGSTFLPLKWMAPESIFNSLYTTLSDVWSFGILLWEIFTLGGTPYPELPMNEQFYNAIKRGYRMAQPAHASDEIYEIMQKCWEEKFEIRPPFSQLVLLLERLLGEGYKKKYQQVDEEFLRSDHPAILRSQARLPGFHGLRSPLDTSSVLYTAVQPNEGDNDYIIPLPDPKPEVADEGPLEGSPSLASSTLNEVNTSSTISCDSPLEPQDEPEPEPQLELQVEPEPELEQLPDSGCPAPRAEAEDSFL

SMILES	IC50 (human PDGFRβ)	IC50 [1]
Cc1cc(F)c(Nc2ccnc3c2C(=O)Nc2cc(CN4CCCC4)ccc2N3)cc1O [Example 32, 4-[(2-Fluoro-5-hydroxy-4-methylphenyl)amino]-8-(pyrrolidin-1-ylmethyl)-6,11-dihydro-5H-pyrido[2,3-b][1,5]benzodiazepin-5-one]	3.25 nM	22.8 nM
Cc1ccc(O)cc1Nc1ccnc2c1C(=O)Nc1cc(CN3CCC(O)CC3)ccc1N2 [Example 42, 4-[(5-Hydroxy-2-methylphenyl)amino]-8-[(4-hydroxypiperidin-1-yl)methyl]-6,11-dihydro-5H-pyrido[2,3-b][1,5]benzodiazepin-5-one]	2.44 nM	140 nM
CCN(CCOC)Cc1ccc2c(c1)NC(=O)c1c(Nc3cc(O)c(C)cc3F)ccnc1N2 [Example 55, 8-{[Ethyl(2-methoxyethyl)amino]methyl}-4-[(2-fluoro-5-hydroxy-4-methylphenyl)amino]-6,11-dihydro-5H-pyrido[2,3-b][1,5]benzodiazepin-5-one]	0.905 nM	60.7 nM
CCNCc1ccc2c(c1)NC(=O)c1c(Nc3cc(O)c(C)cc3F)ccnc1N2 [Example 31, 8-[(Ethylamino)methyl]-4-[(2-fluoro-5-hydroxy-4-methylphenyl)amino]-6,11-dihydro-5H-pyrido[2,3-b][1,5]benzodiazepin-5-one]	1.22 nM	33.3 nM
CCN(CC)Cc1ccc2c(c1)NC(=O)c1c(Nc3cc(O)c(C)cc3F)ccnc1N2 [Example 28, 8-[(Diethylamino)methyl]-4-[(2-fluoro-5-hydroxy-4-methylphenyl)amino]-6,11-dihydro-5H-pyrido[2,3-b][1,5]benzodiazepin-5-one]	0.953 nM	21.6 nM
Cc1ccc(O)cc1Nc1ccnc2c1C(=O)Nc1cc(CNC(C)C)ccc1N2 [Example 19, 4-[(5-Hydroxy-2-methylphenyl)amino]-8-[(isopropylamino)methyl]-6,11-dihydro-5H-pyrido[2,3-b][1,5]benzodiazepin-5-one]	2.02 nM	40.9 nM
Cc1cc(F)c(Nc2ccnc3c2C(=O)Nc2cc(CN4C[C@H](O)C[C@H]4CO)ccc2N3)cc1O [Example 64, 4-[(2-Fluoro-5-hydroxy-4-methylphenyl)amino]-8-{[(2S,4R)-4-hydroxy-2-(hydroxymethyl)pyrrolidin-1-yl]methyl}-6,11-dihydro-5H-pyrido[2,3-b][1,5]benzodiazepin-5-one]	0.68 nM	14.3 nM
CCN(Cc1ccc2c(c1)NC(=O)c1c(Nc3cc(O)c(C)cc3F)ccnc1N2)C(C)C [Example 51, 8-{[Ethyl(isopropyl)amino]methyl}-4-[(2-fluoro-5-hydroxy-4-methylphenyl)amino]-6,11-dihydro-5H-pyrido[2,3-b][1,5]benzodiazepin-5-one]	1.15 nM	22.1 nM
Cc1cc(F)c(Nc2ccnc3c2C(=O)Nc2cc(CNC4CC4)ccc2N3)cc1O [Example 30, 8-[(Cyclopropylamino)methyl]-4-[(2-fluoro-5-hydroxy-4-methylphenyl)amino]-6,11-dihydro-5H-pyrido[2,3-b][1,5]benzodiazepin-5-one]	2.17 nM	111 nM
CCOCCN(CC)Cc1ccc2c(c1)NC(=O)c1c(Nc3cc(O)c(C)cc3F)ccnc1N2 [Example 50, 8-{[(2-Ethoxyethyl) (ethyl)amino]methyl}-4-[(2-fluoro-5-hydroxy-4-methylphenyl)amino]-6,11-dihydro-5H-pyrido[2,3-b][1,5]benzodiazepin-5-one]	1.13 nM	97.4 nM
CCN(C)Cc1ccc2c(c1)NC(=O)c1c(Nc3cc(O)c(C)cc3F)ccnc1N2 [Example 49, 8-{[Ethyl(methyl)amino]methyl}-4-[(2-fluoro-5-hydroxy-4-methylphenyl)amino]-6,11-dihydro-5H-pyrido[2,3-b][1,5]benzodiazepin-5-one]	0.487 nM	41.1 nM
Cc1cc(F)c(Nc2ccnc3c2C(=O)Nc2cc(CN4CCOCC4)ccc2N3)cc1O [Example 29, 4-[(2-Fluoro-5-hydroxy-4-methylphenyl)amino]-8-(morpholin-4-ylmethyl)-6,11-dihydro-5H-pyrido[2,3-b][1,5]benzodiazepin-5-one]	2.89 nM	35.3 nM
Cc1cc(F)c(Nc2ccnc3c2C(=O)Nc2cc(CNC(CO)CO)ccc2N3)cc1O [Example 78, 8-{[(1,3-Dihydroxypropan-2-yl)amino]methyl}-4-[(2-fluoro-5-hydroxy-4-methylphenyl)amino]-6,11-dihydro-5H-pyrido[2,3-b][1,5]benzodiazepin-5-one]	0.974 nM	32.6 nM
Cc1ccc(O)cc1Nc1ccnc2c1C(=O)Nc1cc(CNC3CCCCC3C)ccc1N2 (stereo not shown) [Example 124]	3.02 nM	
Cc1ccc(O)cc1Nc1ccnc2c1C(=O)Nc1cc(CNCCc3ccncc3)ccc1N2 [Example 123]	7.14 nM	
N#Cc1ccc2c(c1)NC(=O)c1c(Nc3ccc(Cl)c(O)c3)ccnc1N2 [Example 11, 4-[(4-Chloro-3-hydroxyphenyl)amino]-5-oxo-6,11-dihydro-5H-pyrido[2,3-b][1,5]benzodiazepine-8-carbonitrile]	4.03 nM	
Cc1ccc(O)cc1Nc1ccnc2c1C(=O)Nc1cc(CNCCCCO)ccc1N2 [Example 17, 8-{[(4-Hydroxybutyl)amino]methyl}-4-[(5-hydroxy-2-methylphenyl)amino]-6,11-dihydro-5H-pyrido[2,3-b][1,5]benzodiazepin-5-one]	5.63 nM	
Cc1cc(F)c(Nc2ccnc3c2C(=O)Nc2cc(CNCCc4ccncc4)ccc2N3)cc1O [Example 74, 4-[(2-Fluoro-5-hydroxy-4-methylphenyl)amino]-8-({[2-(pyridin-4-yl)ethyl]amino}methyl)-6,11-dihydro-5H-pyrido[2,3-b][1,5]benzodiazepin-5-one]	0.475 nM	
CCN1CCCC1CNCc1ccc2c(c1)NC(=O)c1c(Nc3cc(O)ccc3C)ccnc1N2 (stereo not shown) [Example 92, 8-({[(1-Ethylpyrrolidin-2-yl)methyl]amino}methyl)-4-[(5-hydroxy-2-methylphenyl)amino]-6,11-dihydro-5H-pyrido[2,3-b][1,5]benzodiazepin-5-one]	5.27 nM	

Second part, the molecule after the results:

IC50 (human PDGFRβ)	IC50 [1]	SMILES
1.51 nM	41.3 nM	Cc1cc(F)c(Nc2ccnc3c2C(=O)Nc2cc(CNC4CC(O)C4)ccc2N3)cc1O (stereo not shown) [Example 187, 4-[(2-Fluoro-5-hydroxy-4-methylphenyl)amino]-8-{[(3-hydroxycyclobutyl)amino]methyl}-6,11-dihydro-5H-pyrido[2,3-b][1,5]benzodiazepin-5-one]
0.739 nM	215 nM	Cc1cc(F)c(Nc2ccnc3c2C(=O)Nc2cc(CN(C)CCN)ccc2N3)cc1O [Example 209, 8-{[(2-Aminoethyl)(methyl)amino]methyl}-4-[(2-fluoro-5-hydroxy-4-methylphenyl)amino]-6,11-dihydro-5H-pyrido[2,3-b][1,5]benzodiazepin-5-one]
0.962 nM	49.8 nM	Cc1cc(F)c(Nc2ccnc3c2C(=O)Nc2cc(CN(C)CCO)ccc2N3)cc1O [Example 198, 4-[(2-Fluoro-5-hydroxy-4-methylphenyl)amino]-8-{[(2-hydroxyethyl)(methyl)amino]methyl}-6,11-dihydro-5H-pyrido[2,3-b][1,5]benzodiazepin-5-one]
12.1 nM	890 nM	CCN(CCO)C(=O)c1ccc2c(c1)NC(=O)c1c(Nc3cc(O)c(C)cc3F)ccnc1N2 [Example 162, N-Ethyl-4-[(2-fluoro-5-hydroxy-4-methylphenyl)amino]-N-(2-hydroxyethyl)-5-oxo-6,11-dihydro-5H-pyrido[2,3-b][1,5]benzodiazepine-8-carboxamide]
1.01 nM		CCN(CCCO)Cc1ccc2c(c1)NC(=O)c1c(Nc3cc(O)c(C)cc3F)ccnc1N2 [Example 222, 8-{[Ethyl(3-hydroxypropyl)amino]methyl}-4-[(2-fluoro-5-hydroxy-4-methylphenyl)amino]-6,11-dihydro-5H-pyrido[2,3-b][1,5]benzodiazepin-5-one]
1.55 nM		CCN(Cc1ccc2c(c1)NC(=O)c1c(Nc3cc(O)c(C)cc3F)ccnc1N2)CC(C)O (single isomer, unassigned; ent-8) [Example 206, ent-8-{[Ethyl(2-hydroxypropyl)amino]methyl}-4-[(2-fluoro-5-hydroxy-4-methylphenyl)amino]-6,11-dihydro-5H-pyrido[2,3-b][1,5]benzodiazepin-5-one (Enantiomer 2)]
1.26 nM		O=C1Nc2cc(CN3CCC(O)CC3)ccc2Nc2nccc(Nc3cc(O)c(Cl)cc3F)c21 [Example 175, 4-[(4-Chloro-2-fluoro-5-hydroxyphenyl)amino]-8-[(4-hydroxypiperidin-1-yl)methyl]-6,11-dihydro-5H-pyrido[2,3-b][1,5]benzodiazepin-5-one]
3.61 nM		CCC(C)CNCc1ccc2c(c1)NC(=O)c1c(Nc3cc(O)ccc3C)ccnc1N2 (stereo not shown) [Example 153]
2.05 nM		Cc1ccc(O)cc1Nc1ccnc2c1C(=O)Nc1cc(CNC3CCOCC3)ccc1N2 [Example 136]
4.42 nM		Cc1ccc(O)cc1Nc1ccnc2c1C(=O)Nc1cc(CNCC(C)C)ccc1N2 [Example 152]
